How the values were obtained:
[1] = biological target: MAP kinase-activated protein kinase 3 (Homo sapiens) (UniProt Q16644); assay: Inhibition of MAPKAPK3 (unknown origin) at 100 nM
[2] = biological target: Serine/threonine-protein kinase MRCK beta (Homo sapiens) (UniProt Q9Y5S2); assay: Inhibition of MRCKbeta (unknown origin) at 100 nM
[3] = biological target: SRSF protein kinase 3 (Homo sapiens) (UniProt Q9UPE1); assay: Inhibition of MSSK1 (unknown origin) at 100 nM
[4] = biological target: Misshapen-like kinase 1 (Homo sapiens) (UniProt Q8N4C8); assay: Inhibition of MINK1 (unknown origin) at 100 nM
[5] = biological target: Serine/threonine-protein kinase PAK 5 (Homo sapiens) (UniProt Q9P286); assay: Inhibition of PAK7 (unknown origin) at 100 nM
[6] = biological target: Platelet-derived growth factor receptor alpha (Homo sapiens) (UniProt P16234); assay: Inhibition of PDGFRalpha (unknown origin) at 100 nM
[7] = system: Platelet-derived growth factor receptor alpha (Homo sapiens), P16234 [T674I]; assay: Inhibition of PDGFRalpha T674I mutant (unknown origin) at 100 nM
[8] = biological target: Phosphatidylinositol 3-kinase catalytic subunit type 3 (Homo sapiens) (UniProt Q8NEB9); assay: Inhibition of PI3KC3/hVPS34 (unknown origin) at 100 nM
[9] = biological target: Phosphatidylinositol 4-kinase alpha (Homo sapiens) (UniProt P42356); assay: Inhibition of PI4Ka (unknown origin) at 100 nM
[10] = biological target: Protein kinase C beta type (Homo sapiens) (UniProt P05771); assay: Inhibition of PKCbeta2 (unknown origin) at 100 nM
[11] = biological target: cGMP-dependent protein kinase 1 (Homo sapiens) (UniProt Q13976); assay: Inhibition of PKG1alpha (unknown origin) at 100 nM
[12] = biological target: Serine/threonine-protein kinase PLK3 (Homo sapiens) (UniProt Q9H4B4); assay: Inhibition of PLK3 (unknown origin) at 100 nM
[13] = biological target: MAP kinase-activated protein kinase 5 (Homo sapiens) (UniProt Q8IW41); assay: Inhibition of PRAK (unknown origin) at 100 nM
[14] = biological target: Phosphorylase b kinase gamma catalytic chain, liver/testis isoform (Homo sapiens) (UniProt P15735); assay: Inhibition of PHKgamma2 (unknown origin) at 100 nM
[15] = biological target: Receptor-interacting serine/threonine-protein kinase 2 (Homo sapiens) (UniProt O43353); assay: Inhibition of RIPK2 (unknown origin) at 100 nM
[16] = biological target: Ribosomal protein S6 kinase alpha-3 (Homo sapiens) (UniProt P51812); assay: Inhibition of RSK2 (unknown origin) at 100 nM
[17] = biological target: Tyrosine-protein kinase receptor TYRO3 (Homo sapiens) (UniProt Q06418); assay: Inhibition of RSE (unknown origin) at 100 nM
[18] = biological target: Serine/threonine-protein kinase SIK2 (Homo sapiens) (UniProt Q9H0K1); assay: Inhibition of SIK2 (unknown origin) at 100 nM
[19] = biological target: SRSF protein kinase 1 (Homo sapiens) (UniProt Q96SB4); assay: Inhibition of SRPK1 (unknown origin) at 100 nM
[20] = biological target: Serine/threonine-protein kinase 33 (Homo sapiens) (UniProt Q9BYT3); assay: Inhibition of STK33 (unknown origin) at 100 nM
[21] = biological target: Angiopoietin-1 receptor (Homo sapiens) (UniProt Q02763); assay: Inhibition of TIE2 (unknown origin) at 100 nM
[22] = biological target: Wee1-like protein kinase (Homo sapiens) (UniProt P30291); assay: Inhibition of WEE1 (unknown origin) at 100 nM
[23] = biological target: Mitogen-activated protein kinase kinase kinase 20 (Homo sapiens) (UniProt Q9NYL2); assay: Inhibition of ZAK (unknown origin) at 100 nM
[24] = biological target: Eukaryotic elongation factor 2 kinase (Homo sapiens) (UniProt O00418); assay: Inhibition of EEF2K (unknown origin) at 100 nM
[25] = Total AUC in rat at 5 mg/kg, po; format: ADME, organism-based; set-up: dose 5 mg/kg, time AUCmax, route oral; settings: in vivo
[26] = biological target: Aurora kinase A (Homo sapiens) (UniProt O14965); assay: Inhibition of Aurora A (unknown origin) at 100 nM
[27] = biological target: Casein kinase II subunit alpha (Homo sapiens) (UniProt P68400); assay: Inhibition of CK2alpha1 (unknown origin) at 100 nM
[28] = biological target: Calcium/calmodulin-dependent protein kinase type II subunit beta (Homo sapiens) (UniProt Q13554); assay: Inhibition of CaMKIIbeta (unknown origin) at 100 nM
[29] = biological target: Mitogen-activated protein kinase 3 (Homo sapiens) (UniProt P27361); assay: Inhibition of ERK1 (unknown origin) at 100 nM
[30] = biological target: Ephrin type-A receptor 3 (Homo sapiens) (UniProt P29320); assay: Inhibition of EPHA3 (unknown origin) at 100 nM
[31] = biological target: Ephrin type-A receptor 5 (Homo sapiens) (UniProt P54756); assay: Inhibition of EPHA5 (unknown origin) at 100 nM
[32] = biological target: Ephrin type-B receptor 3 (Homo sapiens) (UniProt P54753); assay: Inhibition of EPHB3 (unknown origin) at 100 nM
[33] = biological target: Receptor tyrosine-protein kinase erbB-2 (Homo sapiens) (UniProt P04626); assay: Inhibition of ERBB2 (unknown origin) at 100 nM
[34] = biological target: Fibroblast growth factor receptor 2 (Homo sapiens) (UniProt P21802); assay: Inhibition of FGFR2 (unknown origin) at 100 nM
[35] = biological target: Tyrosine-protein kinase Fes/Fps (Homo sapiens) (UniProt P07332); assay: Inhibition of FES (unknown origin) at 100 nM
[36] = biological target: Vascular endothelial growth factor receptor 3 (Homo sapiens) (UniProt P35916); assay: Inhibition of FLT4 (unknown origin) at 100 nM
[37] = biological target: Beta-adrenergic receptor kinase 1 (Homo sapiens) (UniProt P25098); assay: Inhibition of GRK2 (unknown origin) at 100 nM
[38] = biological target: Homeodomain-interacting protein kinase 3 (Homo sapiens) (UniProt Q9H422); assay: Inhibition of HIPK3 (unknown origin) at 100 nM
[39] = biological target: Mitogen-activated protein kinase 10 (Homo sapiens) (UniProt P53779); assay: Inhibition of JNK3 (unknown origin) at 100 nM
[40] = system: Mast/stem cell growth factor receptor Kit (Homo sapiens), P10721 [T670I]; assay: Inhibition of KIT T670I mutant (unknown origin) at 100 nM
[41] = system: Leucine-rich repeat serine/threonine-protein kinase 2 (Homo sapiens), Q5S007 [G2019S]; assay: Inhibition of LRRK2 G2019S mutant (unknown origin) at 100 nM
[42] = biological target: Protein-tyrosine kinase 6 (Homo sapiens) (UniProt Q13882); assay: Inhibition of BRK (unknown origin) at 100 nM
[43] = biological target: Casein kinase II subunit alpha' (Homo sapiens) (UniProt P19784); assay: Inhibition of CK2alpha2 (unknown origin) at 100 nM

Sequence of Wee1-like protein kinase (Homo sapiens) (P30291 whole entry, looked up): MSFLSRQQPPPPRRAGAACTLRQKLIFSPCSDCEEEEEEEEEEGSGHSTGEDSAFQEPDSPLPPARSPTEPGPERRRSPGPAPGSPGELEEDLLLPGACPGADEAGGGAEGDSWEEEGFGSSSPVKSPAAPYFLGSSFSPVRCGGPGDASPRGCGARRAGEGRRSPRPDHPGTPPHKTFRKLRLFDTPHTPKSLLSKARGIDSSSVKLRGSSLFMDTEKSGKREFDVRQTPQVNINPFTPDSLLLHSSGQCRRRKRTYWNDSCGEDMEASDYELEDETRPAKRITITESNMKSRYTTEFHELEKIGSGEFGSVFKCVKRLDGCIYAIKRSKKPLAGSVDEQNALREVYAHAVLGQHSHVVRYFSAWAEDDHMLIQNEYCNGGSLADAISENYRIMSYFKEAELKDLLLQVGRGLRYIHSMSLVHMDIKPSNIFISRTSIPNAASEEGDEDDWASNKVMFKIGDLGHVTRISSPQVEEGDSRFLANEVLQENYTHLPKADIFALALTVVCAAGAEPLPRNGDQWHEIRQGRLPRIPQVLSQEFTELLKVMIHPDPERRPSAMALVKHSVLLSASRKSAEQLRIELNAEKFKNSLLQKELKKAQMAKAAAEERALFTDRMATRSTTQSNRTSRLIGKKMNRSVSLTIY
Sequence of Mitogen-activated protein kinase 3 (Homo sapiens) (P27361 whole entry): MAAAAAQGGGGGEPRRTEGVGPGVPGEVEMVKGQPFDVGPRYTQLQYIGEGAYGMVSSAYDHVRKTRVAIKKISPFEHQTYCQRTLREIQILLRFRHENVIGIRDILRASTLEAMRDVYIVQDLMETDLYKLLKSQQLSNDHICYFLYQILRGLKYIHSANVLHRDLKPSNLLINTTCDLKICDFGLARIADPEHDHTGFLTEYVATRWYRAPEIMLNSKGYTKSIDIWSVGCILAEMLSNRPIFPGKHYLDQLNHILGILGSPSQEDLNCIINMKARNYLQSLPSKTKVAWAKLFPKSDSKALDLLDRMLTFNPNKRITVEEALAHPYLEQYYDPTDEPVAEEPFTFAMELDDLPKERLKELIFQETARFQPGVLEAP
Sequence of Phosphatidylinositol 3-kinase catalytic subunit type 3 (Homo sapiens) (Q8NEB9 whole entry): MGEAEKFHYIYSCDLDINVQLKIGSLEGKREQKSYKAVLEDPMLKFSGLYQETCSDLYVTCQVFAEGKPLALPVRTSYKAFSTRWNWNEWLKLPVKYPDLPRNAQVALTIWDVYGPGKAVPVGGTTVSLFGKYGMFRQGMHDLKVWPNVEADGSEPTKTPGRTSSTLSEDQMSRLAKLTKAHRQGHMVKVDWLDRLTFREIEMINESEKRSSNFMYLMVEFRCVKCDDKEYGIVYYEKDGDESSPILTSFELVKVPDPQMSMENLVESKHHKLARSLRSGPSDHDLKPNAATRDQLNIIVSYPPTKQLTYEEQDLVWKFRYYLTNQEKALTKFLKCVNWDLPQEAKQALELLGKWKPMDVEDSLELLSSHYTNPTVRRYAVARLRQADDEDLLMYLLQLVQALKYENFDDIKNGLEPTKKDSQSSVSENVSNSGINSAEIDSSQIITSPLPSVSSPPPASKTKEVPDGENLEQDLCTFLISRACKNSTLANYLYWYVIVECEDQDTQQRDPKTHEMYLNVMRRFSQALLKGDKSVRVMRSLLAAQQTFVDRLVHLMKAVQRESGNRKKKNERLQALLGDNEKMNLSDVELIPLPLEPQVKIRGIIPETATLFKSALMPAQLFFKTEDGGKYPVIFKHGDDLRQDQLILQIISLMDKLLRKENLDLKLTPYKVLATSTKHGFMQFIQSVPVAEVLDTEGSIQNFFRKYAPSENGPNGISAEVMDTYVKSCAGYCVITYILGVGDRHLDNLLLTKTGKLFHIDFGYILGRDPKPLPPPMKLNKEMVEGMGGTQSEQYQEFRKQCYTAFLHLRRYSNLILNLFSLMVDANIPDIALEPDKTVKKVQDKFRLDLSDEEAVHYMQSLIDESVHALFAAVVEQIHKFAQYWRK
Sequence of Serine/threonine-protein kinase PLK3 (Homo sapiens) (Q9H4B4 whole entry, looked up): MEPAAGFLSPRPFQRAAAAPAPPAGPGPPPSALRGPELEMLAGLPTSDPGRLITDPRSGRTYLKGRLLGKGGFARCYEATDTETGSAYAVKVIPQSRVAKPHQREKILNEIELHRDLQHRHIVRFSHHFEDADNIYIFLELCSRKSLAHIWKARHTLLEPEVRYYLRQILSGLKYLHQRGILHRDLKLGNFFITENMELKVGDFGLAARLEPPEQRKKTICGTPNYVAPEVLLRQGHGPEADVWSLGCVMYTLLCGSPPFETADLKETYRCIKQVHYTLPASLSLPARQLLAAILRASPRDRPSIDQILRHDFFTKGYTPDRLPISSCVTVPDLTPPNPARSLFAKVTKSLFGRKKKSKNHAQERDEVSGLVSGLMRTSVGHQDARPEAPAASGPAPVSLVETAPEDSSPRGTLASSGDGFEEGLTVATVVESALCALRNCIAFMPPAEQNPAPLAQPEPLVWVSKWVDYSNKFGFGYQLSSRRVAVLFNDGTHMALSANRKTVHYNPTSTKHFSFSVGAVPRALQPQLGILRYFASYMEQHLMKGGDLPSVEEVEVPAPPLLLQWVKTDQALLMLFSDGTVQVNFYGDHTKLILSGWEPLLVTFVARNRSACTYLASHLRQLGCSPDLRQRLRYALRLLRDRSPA
Sequence of Beta-adrenergic receptor kinase 1 (Homo sapiens) (P25098 whole entry): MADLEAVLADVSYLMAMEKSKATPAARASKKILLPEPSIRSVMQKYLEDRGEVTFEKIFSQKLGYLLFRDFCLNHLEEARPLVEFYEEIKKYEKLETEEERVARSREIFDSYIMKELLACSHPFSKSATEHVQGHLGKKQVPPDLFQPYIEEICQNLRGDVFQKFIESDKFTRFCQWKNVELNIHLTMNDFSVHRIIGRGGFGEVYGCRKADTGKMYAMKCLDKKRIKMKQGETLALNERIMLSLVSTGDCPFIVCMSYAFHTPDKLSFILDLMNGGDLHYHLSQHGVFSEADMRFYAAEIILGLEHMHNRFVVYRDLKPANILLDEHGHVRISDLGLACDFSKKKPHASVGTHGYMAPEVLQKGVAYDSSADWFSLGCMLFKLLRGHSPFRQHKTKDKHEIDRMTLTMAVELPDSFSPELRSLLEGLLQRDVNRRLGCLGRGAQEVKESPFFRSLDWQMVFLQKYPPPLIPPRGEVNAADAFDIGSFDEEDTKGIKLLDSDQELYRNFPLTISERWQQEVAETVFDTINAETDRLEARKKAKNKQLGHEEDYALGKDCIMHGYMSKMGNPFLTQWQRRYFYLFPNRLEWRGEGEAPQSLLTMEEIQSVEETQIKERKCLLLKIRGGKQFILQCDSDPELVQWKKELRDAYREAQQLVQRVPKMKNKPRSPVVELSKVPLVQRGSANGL
Sequence of Misshapen-like kinase 1 (Homo sapiens) (Q8N4C8 whole entry, looked up): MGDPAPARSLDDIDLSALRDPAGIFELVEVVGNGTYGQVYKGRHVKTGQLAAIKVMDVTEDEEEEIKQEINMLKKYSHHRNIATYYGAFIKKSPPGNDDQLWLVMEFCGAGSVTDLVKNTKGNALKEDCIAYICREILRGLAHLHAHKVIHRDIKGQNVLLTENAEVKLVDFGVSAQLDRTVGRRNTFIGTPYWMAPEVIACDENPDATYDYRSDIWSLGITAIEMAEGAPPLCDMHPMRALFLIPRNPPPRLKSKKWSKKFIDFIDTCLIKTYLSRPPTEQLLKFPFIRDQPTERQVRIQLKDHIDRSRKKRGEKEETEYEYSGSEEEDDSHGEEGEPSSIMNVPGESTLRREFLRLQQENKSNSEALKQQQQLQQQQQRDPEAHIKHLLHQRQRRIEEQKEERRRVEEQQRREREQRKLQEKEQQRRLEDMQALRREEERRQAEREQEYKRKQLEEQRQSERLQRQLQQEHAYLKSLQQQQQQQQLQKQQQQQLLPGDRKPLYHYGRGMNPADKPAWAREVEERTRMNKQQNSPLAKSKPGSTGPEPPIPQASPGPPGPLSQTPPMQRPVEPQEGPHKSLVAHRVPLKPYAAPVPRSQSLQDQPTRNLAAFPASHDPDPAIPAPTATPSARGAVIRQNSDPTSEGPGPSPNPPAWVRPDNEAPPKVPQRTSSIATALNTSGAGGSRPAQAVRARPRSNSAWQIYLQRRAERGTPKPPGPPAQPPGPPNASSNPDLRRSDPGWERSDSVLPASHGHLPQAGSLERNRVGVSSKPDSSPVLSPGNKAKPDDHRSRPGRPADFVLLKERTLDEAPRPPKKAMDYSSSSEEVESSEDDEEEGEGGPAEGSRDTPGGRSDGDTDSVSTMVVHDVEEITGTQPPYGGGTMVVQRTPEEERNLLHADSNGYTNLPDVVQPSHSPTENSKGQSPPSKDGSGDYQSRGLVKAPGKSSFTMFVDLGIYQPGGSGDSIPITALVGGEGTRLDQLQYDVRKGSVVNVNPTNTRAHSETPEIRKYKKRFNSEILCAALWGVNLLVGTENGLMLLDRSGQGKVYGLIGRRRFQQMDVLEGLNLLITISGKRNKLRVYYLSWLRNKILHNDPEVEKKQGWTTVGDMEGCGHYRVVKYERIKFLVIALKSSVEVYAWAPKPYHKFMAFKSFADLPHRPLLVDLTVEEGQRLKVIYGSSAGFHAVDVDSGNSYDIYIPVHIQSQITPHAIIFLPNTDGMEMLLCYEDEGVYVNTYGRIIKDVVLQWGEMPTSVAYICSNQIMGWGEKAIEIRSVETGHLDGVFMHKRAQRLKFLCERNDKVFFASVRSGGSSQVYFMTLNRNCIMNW
Sequence of Protein-tyrosine kinase 6 (Homo sapiens) (Q13882 whole entry, looked up): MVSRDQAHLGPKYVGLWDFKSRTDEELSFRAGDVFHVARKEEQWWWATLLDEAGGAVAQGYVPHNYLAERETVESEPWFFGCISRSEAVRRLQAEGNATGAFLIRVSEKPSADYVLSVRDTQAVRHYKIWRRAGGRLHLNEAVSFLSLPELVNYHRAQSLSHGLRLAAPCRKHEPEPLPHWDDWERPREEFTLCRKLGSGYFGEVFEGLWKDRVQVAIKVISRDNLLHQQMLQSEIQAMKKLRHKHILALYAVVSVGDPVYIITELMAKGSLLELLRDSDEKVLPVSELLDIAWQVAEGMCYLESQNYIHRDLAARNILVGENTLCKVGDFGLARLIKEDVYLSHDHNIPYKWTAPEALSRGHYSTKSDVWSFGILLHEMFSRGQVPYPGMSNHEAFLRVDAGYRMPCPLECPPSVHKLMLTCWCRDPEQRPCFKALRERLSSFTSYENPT

CC1(C)OCc2c(Nc3n[nH]c4ccccc34)nc(-c3cn[nH]c3)nc21
inhibition [1]: 5.4% | inhibition [2]: -3.9% | inhibition [3]: -3.2% | inhibition [4]: 12.9% | inhibition [5]: -1.8% | inhibition [6]: 57.1% | inhibition [7]: 9.5% | inhibition [8]: 7.4% | inhibition [9]: -2.6% | inhibition [10]: 11.4% | inhibition [11]: 3.4% | inhibition [12]: -5.4% | inhibition [13]: 5.7% | inhibition [14]: -2.9% | inhibition [15]: 97.2% | inhibition [16]: -5.9% | inhibition [17]: 5.8% | inhibition [18]: 35.3% | inhibition [19]: 3.9% | inhibition [20]: 4.2% | inhibition [21]: -0.1% | inhibition [22]: 36.1% | inhibition [23]: 11.4% | inhibition [24]: 7.5% | AUC [25]: 0.37 µM·h | inhibition [26]: -5.4% | inhibition [27]: 1.4% | inhibition [28]: 11.2% | inhibition [29]: 10.9% | inhibition [30]: 4.2% | inhibition [31]: 15.7% | inhibition [32]: 20.1% | inhibition [33]: 57.2% | inhibition [34]: 54% | inhibition [35]: 6% | inhibition [36]: 95.8% | inhibition [37]: -0.6% | inhibition [38]: 8.6% | inhibition [39]: 18.6% | inhibition [40]: 17.9% | inhibition [41]: 16% | inhibition [42]: 90.6% | inhibition [43]: 4.2%

From ChEMBL document CHEMBL3758169, “4-Aminoindazolyl-dihydrofuro[3,4-d]pyrimidines as non-covalent inhibitors of mutant epidermal growth factor receptor tyrosine kinase” (Bioorg Med Chem Lett, 2016)
